Source: patent US8980846B2, “Composition containing styraxlignolide A or the aglycone thereof as an active ingredient for preventing or treating asthma” (Korea Research Institute of Bioscience and Biotechnology, priority 2010, dated 2015)

Key:
Assay type in all cases: in vivo, Balb/c female mice
[1] = tested on: airway hyperresponsiveness; assay: Airway hyperresponsiveness, Penh by one chamber plethysmography after methacholine inhalation; conditions: asthma-induced mice, homoegonol study
Experimental: To prepare bronchial asthma-induced experimental animals, six-week-old Balb/c female mice of mean weight about 20 g were used. After one week of adaptation, individuals which had no observed abnormality on a basic physical examination were targeted. 200 μL of phosphate buffered saline (PBS)(pH 7.4) in which 2 mg of aluminum hydroxide (A8222, Sigma, St. Louis, Mo.) and 20 μg of ovalbumin (A5503, Sigma, St. Louis, Mo.) were suspended was injected into the peritoneal cavity at two-week intervals to result in sensitization. On days 28 to 30 after the first intraperitoneal administration of ovalbumin, inhalation challenge was performed for 30 min with 1% ovalbumin using an ultrasonic atomizer. 24 hours after the last antigen administration, airway hyperresponsiveness was measured. After 24 hours, a lethal dose of pentobarbital (Entobar®, Hanlim Pharm Co., Ltd.) was administered, body weight measurement and bronchotomy were performed, and bronchoalveolar lavage was performed with a total 1.2 mL of physiological saline, and then, samples were collected. […] Eight white mice were used for each group. […]
The effect of styraxlignolide A on airway hyperresponsiveness caused by asthma occurrence was examined by measuring airway resistance with one chamber plethysmography (All medicus, Seoul, Republic of Korea) and degree of airway resistance was assessed by measuring Penh (enhanced pause) values. The baseline value was measured under a normal respiratory condition, and then, PBS was inhaled using an ultrasonic atomizer for 3 min, and Penh values were measured over 3 min. […] Louis, Mo.) which is used in general methods for diagnosis of bronchial asthma were inhaled and Penh values were measured. Penh value is shown in the following Equation 1, and the resulting Penh value was expressed as a percent increase in Penh after inhalation of each concentration of methacholine. The baseline Penh (saline challenge) was expressed as 100%.
Te: expiratory time (sec), the time from inspiration to the next inspiration
RT: relaxation time, the elapsed time between the beginning of the expiration and the moment when the remaining 30% of the tidal volume has been reached during expiration
PEF: Peak expiration flow
PIF: Peak inspiration flow
To examine the effect of homoegonol on airway hyperresponsiveness caused by asthma occurrence, Penh value was measured according to the method in <Experimental Example 2>.

ovalbumin-specific IgE = assay: IgE levels in serum and bronchoalveolar lavage fluid (ELISA); conditions: asthma-induced mice, homoegonol study; for Total serum IgE level: Table 2
Experimental: (§1) To prepare bronchial asthma-induced experimental animals, six-week-old Balb/c female mice of mean weight about 20 g were used. After one week of adaptation, individuals which had no observed abnormality on a basic physical examination were targeted. 200 μL of phosphate buffered saline (PBS)(pH 7.4) in which 2 mg of aluminum hydroxide (A8222, Sigma, St. Louis, Mo.) and 20 μg of ovalbumin (A5503, Sigma, St. Louis, Mo.) were suspended was injected into the peritoneal cavity at two-week intervals to result in sensitization. On days 28 to 30 after the first intraperitoneal administration of ovalbumin, inhalation challenge was performed for 30 min with 1% ovalbumin using an ultrasonic atomizer. 24 hours after the last antigen administration, airway hyperresponsiveness was measured. After 24 hours, a lethal dose of pentobarbital (Entobar®, Hanlim Pharm Co., Ltd.) was administered, body weight measurement and bronchotomy were performed, and bronchoalveolar lavage was performed with a total 1.2 mL of physiological saline, and then, samples were collected. […] Eight white mice were used for each group. Experimental groups for homoegonol were a group (hE7.5) in which animals were orally administered with 7.5 mg/kg homoegonol 1 hour prior to ovalbumin inhalation, a group (hE15) in which animals were orally administered with 15 mg/kg homoegonol 1 hour prior to ovalbumin inhalation, and a group (hE30) in which animals were orally administered with 30 mg/kg homoegonol 1 hour prior to ovalbumin inhalation, and five white mice were used for each group.
To measure serum and bronchoalveolar lavage fluid ovalbumin-specific IgE levels caused by administration of styraxlignolide A, an immunoenzyme technique was used. 20 μg/mL of ovalbumin was dissolved in a 0.1 M NAHCO3 buffer (pH 8.3), and was placed into a 96-well flat bottom ELISA plate to be coated at 4° C. overnight. Non-specific binding was blocked with PBS containing 1% bovine serum albumin, and a serum sample was diluted 1:400 and was allowed to react at room temperature for 2 hours. Then, the plate was washed well, and anti-mouse IgE monoclonal antibody was diluted 1:300 and was allowed to react for 2 hours. Then, HRP-conjugated goat anti-rat IgG polyclonal antibody which was coupled to peroxidase was diluted 1:4000 and was allowed to react at room temperature for 1 hour, and then, was washed. For color development, 3,3′,5,5′-tetramethylbezidine substrate was allowed to react, and the spectroscopic absorbance was measured at 650 nm.
To measure IgE levels which are correlated with severity of asthma to examine the effect of homoegonol on asthma, IgE levels in serum and bronchoalveolar lavage fluid were measured according to the method in <Experimental Example 4>.

goblet cells = assay: Ratio of goblet cells to bronchial epithelial cells (PAS staining); conditions: asthma-induced mice, homoegonol study
Experimental: as §1
Lungs removed from each individual were subjected to conventional formalin fixation and paraffin embedding, and permanent section slides of 4 μm thickness were prepared, and periodic acid Schiff (PAS) staining was performed to determine goblet cells. Proliferation of goblet cells was assessed by measuring the ratio of goblet cells to bronchial epithelial cells.
In accordance with the method in <Experimental Example 7-2>, the ratio of goblet cells which were determined by periodic acid-Schiff staining to bronchial epithelial cells were measured to assess proliferation of goblet cells.

TGF-β1 = TGF-β1 in bronchoalveolar lavage fluid; conditions: asthma-induced mice, homoegonol study
Experimental: as §1
To examine the effect of homoegonol on airway remodeling, generation of TGF-β1 and IL-17 in bronchoalveolar lavage fluid was measured.

SMILES: COc1ccc(-c2cc3cc(CCCO)cc(OC)c3o2)cc1OC [homoegonol]
- Penh values ([1]; 7.5 mg/kg PO, methacholine 0 mg/ml): 0.6003 ± 0.0500
- Penh values ([1]; 7.5 mg/kg PO, methacholine 12.5 mg/ml): 1.1399 ± 0.1279
- Penh values ([1]; 7.5 mg/kg PO, methacholine 25 mg/ml): 1.4067 ± 0.1279
- Penh values ([1]; 7.5 mg/kg PO, methacholine 50 mg/ml): 1.4317 ± 0.2094
- Penh values ([1]; 15 mg/kg PO, methacholine 0 mg/ml): 0.4538 ± 0.0376
- Penh values ([1]; 15 mg/kg PO, methacholine 12.5 mg/ml): 0.7989 ± 0.0736
- Penh values ([1]; 15 mg/kg PO, methacholine 25 mg/ml): 1.0243 ± 0.1881
- Penh values ([1]; 15 mg/kg PO, methacholine 50 mg/ml): 1.0918 ± 0.1914
- Penh values ([1]; 30 mg/kg PO, methacholine 0 mg/ml): 0.4736 ± 0.0420
- Penh values ([1]; 30 mg/kg PO, methacholine 12.5 mg/ml): 0.6516 ± 0.0914
- Penh values ([1]; 30 mg/kg PO, methacholine 25 mg/ml): 0.9515 ± 0.1268
- Penh values ([1]; 30 mg/kg PO, methacholine 50 mg/ml): 1.0576 ± 0.1582
- Total IgE level in bronchoalveolar lavage fluid (ovalbumin-specific IgE; 7.5 mg/kg PO, 7.5 mg/kg): 65.5957 ± 11.6656 ng/mL
- serum IgE levels (ovalbumin-specific IgE; 7.5 mg/kg PO): 19.22 ± 4.9287 µg/mL
- Total serum IgE level (ovalbumin-specific IgE; 7.5 mg/kg PO): 10.34 ± 6.0548 µg/mL
- Total IgE level in bronchoalveolar lavage fluid (ovalbumin-specific IgE; 15 mg/kg PO, 15 mg/kg): 48.4894 ± 4.1926 ng/mL
- serum IgE levels (ovalbumin-specific IgE; 15 mg/kg PO): 10.74 ± 3.4612 µg/mL
- Total serum IgE level (ovalbumin-specific IgE; 15 mg/kg PO): 9.94 ± 5.0656 µg/mL
- Total IgE level in bronchoalveolar lavage fluid (ovalbumin-specific IgE; 30 mg/kg PO, 30 mg/kg): 23.8085 ± 3.3515 ng/mL
- serum IgE levels (ovalbumin-specific IgE; 30 mg/kg PO): 8.14 ± 5.9682 µg/mL
- Total serum IgE level (ovalbumin-specific IgE; 30 mg/kg PO): 8.62 ± 2.4844 µg/mL
- Goblet cells %/bronchial epithelial cell unit (goblet cells; 7.5 mg/kg PO, 7.5 mg/kg): 36.5600±11.5613%
- Goblet cells %/bronchial epithelial cell unit (goblet cells; 15 mg/kg PO, 15 mg/kg): 32.4109±10.8037%
- Goblet cells %/bronchial epithelial cell unit (goblet cells; 30 mg/kg PO, 30 mg/kg): 25.0956±3.4033%
- TGF-β1 concentrations in bronchoalveolar lavage fluid (TGF-β1; 7.5 mg/kg PO): 216.1875 ± 13.5904 pg/mL
- TGF-β1 concentrations in bronchoalveolar lavage fluid (TGF-β1; 15 mg/kg PO): 190.4375 ± 13.0702 pg/mL
- TGF-β1 concentrations in bronchoalveolar lavage fluid (TGF-β1; 30 mg/kg PO): 186.8125 ± 6.4551 pg/mL
